Results published in ChEMBL document CHEMBL1201862, “PubChem BioAssay data set” (2004).
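A five-concentration, 48-hour dose response in 96-well plates underlies each endpoint, interpolated linearly between surrounding concentrations. The concentration for 50% growth inhibition is given as GI50.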 The source made the active and inactive calls. Cut-off read from the data, not from the text of the source: active = GI50 up to about 1.1 µM and inactive = higher.

What was measured:
Test in all cases: growth of human tumour cells (NCI), 48 h
[1] = test system: ACHN
[2] = test system: HCT-15
[3] = test system: HOP-62
[4] = test system: KM12
[5] = test system: LOX IMVI
[6] = test system: M14
[7] = test system: M19-MEL
[8] = test system: NCI-H522
[9] = test system: OVCAR-3
[10] = test system: OVCAR-4
[11] = test system: OVCAR-5
[12] = test system: SK-MEL-2
[13] = test system: SNB-75
[14] = test system: U-251
[15] = test system: UACC-257
[16] = test system: UO-31
[17] = test system: SK-OV-3
[18] = test system: BT-549
[19] = test system: DU-145
[20] = test system: NCI/ADR-RES

SMILES	GI50 [1]	GI50 [2]	GI50 [3]	GI50 [4]	GI50 [5]	GI50 [6]	GI50 [7]	GI50 [8]	GI50 [9]	GI50 [10]	GI50 [11]	GI50 [12]	GI50 [13]	GI50 [14]	GI50 [15]	GI50 [16]	GI50 [17]	GI50 [18]	GI50 [19]	GI50 [20]
N=C(N)SCc1cn2ccccc2n1	> 100 µM (inactive)	> 100 µM	> 100 µM (inactive)	> 100 µM (inactive)	> 100 µM (inactive)	> 100 µM (inactive)	> 100 µM (inactive)	> 100 µM (inactive)	> 100 µM (inactive)	> 100 µM (inactive)	> 100 µM (inactive)	> 100 µM (inactive)	> 100 µM (inactive)	> 100 µM (inactive)	> 100 µM (inactive)	> 100 µM (inactive)	–	–	–	–
COc1cc2cc(OC(C)=O)c3cc4c(cc3c2c(OC)c1OC)OCO4	> 100 µM (inactive)	> 100 µM	> 100 µM (inactive)	> 100 µM (inactive)	> 100 µM (inactive)	> 100 µM (inactive)	> 100 µM (inactive)	> 100 µM (inactive)	> 100 µM (inactive)	> 100 µM (inactive)	> 100 µM (inactive)	> 100 µM (inactive)	> 100 µM (inactive)	> 100 µM (inactive)	> 100 µM (inactive)	> 100 µM (inactive)	> 100 µM (inactive)	–	–	–
CC1(C=O)C(=O)CCC2(C)C3CC(=O)OC3CCC12 (stereo not given)	> 100 µM (inactive)	> 100 µM	> 100 µM (inactive)	> 100 µM (inactive)	> 100 µM (inactive)	> 100 µM (inactive)	> 100 µM (inactive)	> 100 µM (inactive)	> 100 µM (inactive)	> 100 µM (inactive)	> 100 µM (inactive)	> 100 µM (inactive)	> 100 µM (inactive)	> 100 µM (inactive)	> 100 µM (inactive)	> 100 µM (inactive)	> 100 µM (inactive)	–	–	–
Nc1nc2[nH]cnc2c(=S)[nH]1 [THIOGUANINE]	1.86 µM (inactive)	1.08 µM	0.78 µM (active)	1.71 µM (inactive)	0.207 µM (active)	0.56 µM (active)	9.82 µM (inactive)	0.895 µM (active)	0.767 µM (active)	1.45 µM (inactive)	0.692 µM (active)	1 µM (active)	1.48 µM (inactive)	5.12 µM (inactive)	2.1 µM (inactive)	1.56 µM (inactive)	0.548 µM (active)	3.04 µM (inactive)	0.776 µM (active)	0.671 µM (active)
CN(C)CCNC(=O)c1cccc2ncc(-c3ccccc3)nc12	5.35 µM (inactive)	5.37 µM	9.25 µM (inactive)	11.8 µM (inactive)	7.66 µM (inactive)	13.9 µM (inactive)	14.2 µM (inactive)	5.78 µM (inactive)	19.5 µM (inactive)	8.77 µM (inactive)	9.04 µM (inactive)	14.6 µM (inactive)	17.5 µM (inactive)	8.26 µM (inactive)	14.7 µM (inactive)	8.89 µM (inactive)	16.4 µM (inactive)	–	–	–
Nc1nncs1	1520 µM (inactive)	853 µM	724 µM (inactive)	1940 µM (inactive)	1450 µM (inactive)	1580 µM (inactive)	1090 µM (inactive)	1210 µM (inactive)	2400 µM (inactive)	853 µM (inactive)	1870 µM (inactive)	> 5000 µM (inactive)	1440 µM (inactive)	3100 µM (inactive)	705 µM (inactive)	3530 µM (inactive)	151 µM (inactive)	1940 µM (inactive)	2070 µM (inactive)	1510 µM (inactive)
CCCCNCCCNCCCNC(=O)c1csc(-c2csc(CCNC(=O)C(NC(=O)C(C)C(O)C(C)NC(=O)C(NC(=O)c3nc(C(CC(N)=O)NCC(N)C(N)=O)nc(N)c3C)C(OC3OC(CO)C(O)C(O)C3OC3OC(CO)C(O)C(OC(N)=O)C3O)c3c[nH]cn3)C(C)O)n2)n1 (stereo not given)	< 0.0187 µM (active)	24.9 µM	0.174 µM (active)	8.67 µM (inactive)	0.105 µM (active)	1.43 µM (inactive)	8.89 µM (inactive)	0.791 µM (active)	2.86 µM (inactive)	5.75 µM (inactive)	2.3 µM (inactive)	2.25 µM (inactive)	0.0589 µM (active)	0.489 µM (active)	14.3 µM (inactive)	0.372 µM (active)	4.06 µM (inactive)	> 50 µM (inactive)	11.1 µM (inactive)	–
CC1=C(C(=O)Nc2ccccc2C)C(c2ccc(C3C(C(=O)Nc4ccccc4C)=CNC=C3C(=O)Nc3ccccc3C)cc2)C(C(=O)Nc2ccccc2C)=C(C)N1	16.4 µM (inactive)	16.8 µM	25.4 µM (inactive)	14.1 µM (inactive)	7.08 µM (inactive)	16.8 µM (inactive)	23.8 µM (inactive)	6.68 µM (inactive)	20.3 µM (inactive)	14.7 µM (inactive)	21.6 µM (inactive)	15.7 µM (inactive)	19.5 µM (inactive)	12.2 µM (inactive)	17.1 µM (inactive)	18.7 µM (inactive)	27.3 µM (inactive)	–	–	–
NCCCCCCNCc1cccc2ccccc12	> 100 µM (inactive)	74.6 µM	> 100 µM (inactive)	99.8 µM (inactive)	41 µM (inactive)	18.4 µM (inactive)	> 100 µM (inactive)	83.6 µM (inactive)	> 100 µM (inactive)	> 100 µM (inactive)	> 100 µM (inactive)	41.3 µM (inactive)	> 100 µM (inactive)	> 100 µM (inactive)	46.3 µM (inactive)	53.5 µM (inactive)	> 100 µM (inactive)	–	–	–
O=C1OC2(c3ccccc3Oc3ccccc32)c2ccccc21	> 100 µM (inactive)	> 100 µM	> 100 µM (inactive)	> 100 µM (inactive)	> 100 µM (inactive)	> 100 µM (inactive)	> 100 µM (inactive)	69.8 µM (inactive)	> 100 µM (inactive)	> 100 µM (inactive)	> 100 µM (inactive)	> 100 µM (inactive)	> 100 µM (inactive)	> 100 µM (inactive)	99.5 µM (inactive)	> 100 µM (inactive)	> 100 µM (inactive)	–	–	–
CCOP1(=O)C=C(C)C(Cl)=C(C)C1 (stereo not given)	24.6 µM (inactive)	23.3 µM	> 100 µM (inactive)	15.8 µM (inactive)	20.4 µM (inactive)	17.1 µM (inactive)	21.1 µM (inactive)	13.9 µM (inactive)	37.3 µM (inactive)	24.2 µM (inactive)	43.9 µM (inactive)	8.91 µM (inactive)	15.4 µM (inactive)	24.3 µM (inactive)	23.1 µM (inactive)	35.3 µM (inactive)	60.3 µM (inactive)	–	–	–
COc1c(C)c(O)c2c(=O)cc(-c3ccccc3)oc2c1C	> 100 µM (inactive)	> 100 µM	> 100 µM (inactive)	> 100 µM (inactive)	> 100 µM (inactive)	> 100 µM (inactive)	> 100 µM (inactive)	> 100 µM (inactive)	> 100 µM (inactive)	> 100 µM (inactive)	> 100 µM (inactive)	> 100 µM (inactive)	> 100 µM (inactive)	> 100 µM (inactive)	> 100 µM (inactive)	> 100 µM (inactive)	> 100 µM (inactive)	–	–	–
O=C(/C=C/c1ccccc1O)c1cccc2ccccc12	> 100 µM (inactive)	23.7 µM	> 81.7 µM (inactive)	40.3 µM (inactive)	> 53.5 µM (inactive)	> 100 µM (inactive)	> 100 µM (inactive)	51.9 µM (inactive)	30.2 µM (inactive)	56.8 µM (inactive)	> 100 µM (inactive)	> 100 µM (inactive)	48.8 µM (inactive)	42.3 µM (inactive)	> 69.5 µM (inactive)	> 47.4 µM (inactive)	> 100 µM (inactive)	–	–	–
CN1CCC(=O)/C(=C/c2ccccc2)C1	17.9 µM (inactive)	7.06 µM	20.6 µM (inactive)	2.23 µM (inactive)	5.58 µM (inactive)	13.2 µM (inactive)	5.45 µM (inactive)	8.95 µM (inactive)	11.6 µM (inactive)	17.9 µM (inactive)	15.7 µM (inactive)	20.5 µM (inactive)	6.85 µM (inactive)	6.44 µM (inactive)	14.7 µM (inactive)	17.9 µM (inactive)	20.2 µM (inactive)	–	–	–
